Assay results reported in publication PMC4561207 (Child's nervous system : ChNS : official journal of the …, 2015).
Entries after “also recorded” stand apart in the source; their conditions may differ.

Experiment: Toxicities attributed to Cediranib
Assay type: in vivo, human

COc1cc2c(Oc3ccc4[nH]c(C)cc4c3F)ncnc2cc1OCCCN1CCCC1 [cediranib, Cediranib]
Eye disorders - Other, specify, events (patients) (grade 3 TOX): 1(1)
Fatigue, events (patients) (grade 3 TOX): 2(2)
Headache, events (patients) (grade 3 TOX): 2(2)
Hydrocephalus, events (patients) (grade 3 TOX): 1(1)
Hypertension, events (patients) (grade 3 TOX): 10(10)
Hypertriglyceridemia, events (patients) (grade 3 TOX): 1(1)
Hypokalemia, events (patients) (grade 3 TOX): 2(1)
Hyponatremia, events (patients) (grade 3 TOX): 3(3)
Lipase increased, events (patients) (grade 3 TOX): 1(1)
Lymphocyte count decreased, events (patients) (grade 3 TOX): 5(3)
Nausea, events (patients) (grade 3 TOX): 1(1)
Neutrophil count decreased, events (patients) (grade 3 TOX): 2(2)
Palmar-plantar erythrodysesthesia syndrome, events (patients) (grade 3 TOX): 3(3)
Proteinuria, events (patients) (grade 3 TOX): 3(3)
Reversible posterior leukoencephalopathy syndrome, events (patients) (grade 3 TOX): 1(1)
Vomiting, events (patients) (grade 3 TOX): 1(1)
Weight loss, events (patients) (grade 3 TOX): 1(1)
White blood cell decreased, events (patients) (grade 3 TOX): 1(1)
Alanine aminotransferase increased, events (patients) (grade 4 TOX): 1(1)
Aspartate aminotransferase increased, events (patients) (grade 4 TOX): 1(1)
Hypothyroidism, events (patients) (grade 4 TOX): 1(1)
Lymphocyte count decreased, events (patients) (grade 4 TOX): 1(1)
Nervous system disorders - Other, specify, events (patients) (grade 4 TOX): 1(1)
Papilledema, events (patients) (grade 4 TOX): 1(1)
fatigue, number of patients (human, in vivo): 16
left ventricular dysfunction (human, in vivo): No left ventricular dysfunction was identified in any of the patients; also recorded: No dose-limiting decreases in left ventricular function were observed
palmar-plantar erythrodysesthesia syndrome, number of patients (human, in vivo): 7
hypertension, percentage of patients (of 48 eligible patients): 77%
hypothyroidism, number of patients (of 48 eligible patients): 15
hypothyroidism, percentage of patients (of 48 eligible patients): 31%
proteinuria, number of patients (of 48 eligible patients): 20
proteinuria, percentage of patients (of 48 eligible patients): 42%
hypertension, number of patients (of 48 eligible patients, all dose levels): 37
diarrhea grade 3, number of patients (of thirty-two patients with diarrhea): 2
effect on bone growth: bone-related AEs (short duration of drug exposure in the majority of patients): no bone-related AEs were identified
Abdominal pain, events (patients) (total TOX): 10(10)
Acidosis, events (patients) (total TOX): 1(1)
Alanine aminotransferase increased, events (patients) (total TOX): 65(28)
Alkaline phosphatase increased, events (patients) (total TOX): 2(2)
Anal mucositis, events (patients) (total TOX): 1(1)
Anal pain, events (patients) (total TOX): 1(1)
Anemia, events (patients) (total TOX): 3(3)
Anorexia, events (patients) (total TOX): 13(10)
Arthralgia, events (patients) (total TOX): 1(1)
Aspartate aminotransferase increased, events (patients) (total TOX): 43(21)
Back pain, events (patients) (total TOX): 2(2)
Blood bilirubin increased, events (patients) (total TOX): 13(7)
Blurred vision, events (patients) (total TOX): 1(1)
Bone pain, events (patients) (total TOX): 2(1)
Capillary leak syndrome, events (patients) (total TOX): 1(1)
Cardiac troponin I increased, events (patients) (total TOX): 1(1)
Chest wall pain, events (patients) (total TOX): 1(1)
Cholesterol high, events (patients) (total TOX): 1(1)
Chronic kidney disease, events (patients) (total TOX): 1(1)
Confusion, events (patients) (total TOX): 1(1)
Constipation, events (patients) (total TOX): 6(2)
Cough, events (patients) (total TOX): 1(1)
Creatinine increased, events (patients) (total TOX): 1(1)
Dehydration, events (patients) (total TOX): 4(4)
Depressed level of consciousness, events (patients) (total TOX): 1(1)
Depression, events (patients) (total TOX): 1(1)
Diarrhea, events (patients) (total TOX): 61(32)
Dizziness, events (patients) (total TOX): 5(3)
Dry mouth, events (patients) (total TOX): 1(1)
Dry skin, events (patients) (total TOX): 1(1)
Dyspepsia, events (patients) (total TOX): 3(3)
Dysphasia, events (patients) (total TOX): 1(1)
Edema face, events (patients) (total TOX): 1(1)
Edema limbs, events (patients) (total TOX): 1(1)
Endocrine disorders - Other, specify, events (patients) (total TOX): 1(1)
Enterocolitis, events (patients) (total TOX): 1(1)
Epistaxis, events (patients) (total TOX): 5(4)
Eye disorders - Other, specify, events (patients) (total TOX): 1(1)
Fatigue, events (patients) (total TOX): 18(16)
Fecal incontinence, events (patients) (total TOX): 1(1)
Fever, events (patients) (total TOX): 1(1)
Flushing, events (patients) (total TOX): 3(1)
GGT increased, events (patients) (total TOX): 1(1)
Gastritis, events (patients) (total TOX): 1(1)
Gastrointestinal disorders - Other, specify, events (patients) (total TOX): 2(2)
Headache, events (patients) (total TOX): 10(7)
Hematuria, events (patients) (total TOX): 5(3)
Hemoglobin increased, events (patients) (total TOX): 6(2)
Hoarseness, events (patients) (total TOX): 1(1)
Hydrocephalus, events (patients) (total TOX): 1(1)
Hypercalcemia, events (patients) (total TOX): 3(2)
Hyperglycemia, events (patients) (total TOX): 9(8)
Hyperkalemia, events (patients) (total TOX): 2(2)
Hypermagnesemia, events (patients) (total TOX): 7(5)
Hypernatremia, events (patients) (total TOX): 5(4)
Hypertension, events (patients) (total TOX): 57(37)
Hyperthyroidism, events (patients) (total TOX): 2(2)
Hypertriglyceridemia, events (patients) (total TOX): 1(1)
Hypoalbuminemia, events (patients) (total TOX): 26(13)
Hypocalcemia, events (patients) (total TOX): 17(8)
Hypoglycemia, events (patients) (total TOX): 3(3)
Hypokalemia, events (patients) (total TOX): 16(12)
Hypomagnesemia, events (patients) (total TOX): 7(5)
Hyponatremia, events (patients) (total TOX): 12(6)
Hypophosphatemia, events (patients) (total TOX): 14(8)
Hypothyroidism, events (patients) (total TOX): 21(15)
Hypoxia, events (patients) (total TOX): 1(1)
INR increased, events (patients) (total TOX): 1(1)
Intracranial hemorrhage, events (patients) (total TOX): 4(4)
Investigations - Other, specify, events (patients) (total TOX): 2(2)
Joint effusion, events (patients) (total TOX): 1(1)
Leukoencephalopathy, events (patients) (total TOX): 1(1)
Lipase increased, events (patients) (total TOX): 2(1)
Lymphocyte count decreased, events (patients) (total TOX): 24(10)
Malaise, events (patients) (total TOX): 2(1)
Mucositis oral, events (patients) (total TOX): 3(3)
Myalgia, events (patients) (total TOX): 2(2)
Nausea, events (patients) (total TOX): 19(10)
Nervous system disorders - Other, specify, events (patients) (total TOX): 1(1)
Neutrophil count decreased, events (patients) (total TOX): 20(10)
Non-cardiac chest pain, events (patients) (total TOX): 1(1)
Oral pain, events (patients) (total TOX): 2(2)
Pain in extremity, events (patients) (total TOX): 4(4)
Pain, events (patients) (total TOX): 1(1)
Palmar-plantar erythrodysesthesia syndrome, events (patients) (total TOX): 17(7)
Papilledema, events (patients) (total TOX): 1(1)
Pericardial effusion, events (patients) (total TOX): 1(1)
Peripheral motor neuropathy, events (patients) (total TOX): 1(1)
Platelet count decreased, events (patients) (total TOX): 25(18)
Pleural effusion, events (patients) (total TOX): 1(1)
Proteinuria, events (patients) (total TOX): 36(20)
Rash acneiform, events (patients) (total TOX): 2(2)
Rash maculo-papular, events (patients) (total TOX): 5(5)
Rectal pain, events (patients) (total TOX): 1(1)
Renal and urinary disorders - Other, specify, events (patients) (total TOX): 1(1)
Respiratory, thoracic and mediastinal disorders - Other, specify, events (patients) (total TOX): 1(1)
Reversible posterior leukoencephalopathy syndrome, events (patients) (total TOX): 2(1)
Seizure, events (patients) (total TOX): 1(1)
Serum amylase increased, events (patients) (total TOX): 1(1)
Skin and subcutaneous tissue disorders - Other, specify, events (patients) (total TOX): 1(1)
Skin ulceration, events (patients) (total TOX): 1(1)
Stomach pain, events (patients) (total TOX): 2(2)
Urinary frequency, events (patients) (total TOX): 1(1)
Urinary retention, events (patients) (total TOX): 1(1)
Vascular disorders - Other, specify, events (patients) (total TOX): 2(2)
Voice alteration, events (patients) (total TOX): 2(2)
Vomiting, events (patients) (total TOX): 27(13)
Weight loss, events (patients) (total TOX): 3(3)
White blood cell decreased, events (patients) (total TOX): 18(11)
